Experimental data reported in patent US5610174A, “Use of α1A -selective adrenoceptor agonists for the treatment of urinary incontinence” (priority 1995, dated 1997).
Like-named read-outs stand apart in the source and are kept apart here.

Key:
human α2A adrenoceptor = target: T1, human α2A adrenoceptor (Homo sapiens, UniProt P08913); test: Radioligand binding ([3H]rauwolscine) at cloned human α2A
T1 construct: expressed in transfected cells; host or cells: LM(tk-)
T1 sequence (P08913 1-465): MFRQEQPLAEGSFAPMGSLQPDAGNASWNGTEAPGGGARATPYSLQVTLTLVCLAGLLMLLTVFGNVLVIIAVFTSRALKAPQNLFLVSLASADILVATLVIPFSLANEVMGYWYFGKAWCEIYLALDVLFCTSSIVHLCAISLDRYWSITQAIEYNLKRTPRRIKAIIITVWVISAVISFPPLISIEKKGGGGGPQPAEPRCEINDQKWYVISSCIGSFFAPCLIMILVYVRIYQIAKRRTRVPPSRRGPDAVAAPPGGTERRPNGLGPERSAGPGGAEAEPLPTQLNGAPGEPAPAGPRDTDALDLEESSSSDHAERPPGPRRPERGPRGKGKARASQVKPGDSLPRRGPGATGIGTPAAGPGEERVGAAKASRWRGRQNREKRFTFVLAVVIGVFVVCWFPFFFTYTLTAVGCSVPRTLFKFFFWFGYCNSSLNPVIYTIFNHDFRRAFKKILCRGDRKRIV
Method: (§1) To determine the affinity of compounds at the α2 receptors, LM(tk-) cell lines stably transfected with the genes encoding the α2A, α2B, and α2C receptors were used. Cell lysates were prepared as described above (see Radioligand Binding Assays), and suspended in 25 mM glycylglycine buffer (pH 7.6 at room temperature). Equilibrium competition binding assays were performed using [^3 H] rauwolscine (0.5 nM), and nonspecific binding was determined by incubation with 10 μM phentolamine. The bound radioligand was separated by filtration through GF/B filters using a cell harvester.

human α2B adrenoceptor = target: T2, human α2B adrenoceptor (Homo sapiens, UniProt P18089); test: Radioligand binding ([3H]rauwolscine) at cloned human α2B; design: expressed in transfected cells
T2 sequence (P18089 1-450): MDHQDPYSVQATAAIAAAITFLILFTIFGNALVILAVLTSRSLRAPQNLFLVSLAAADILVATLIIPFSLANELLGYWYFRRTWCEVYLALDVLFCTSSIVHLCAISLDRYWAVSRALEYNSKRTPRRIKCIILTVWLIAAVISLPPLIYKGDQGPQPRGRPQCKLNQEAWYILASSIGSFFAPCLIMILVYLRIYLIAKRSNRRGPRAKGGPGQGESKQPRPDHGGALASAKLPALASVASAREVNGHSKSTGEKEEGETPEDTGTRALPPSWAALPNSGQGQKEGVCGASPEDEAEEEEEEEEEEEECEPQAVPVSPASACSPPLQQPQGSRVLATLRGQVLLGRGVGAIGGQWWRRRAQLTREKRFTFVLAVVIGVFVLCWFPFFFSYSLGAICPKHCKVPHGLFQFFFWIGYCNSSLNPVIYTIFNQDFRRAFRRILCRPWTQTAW
Method: as §1

[1] = target: T3, human dopamine D2 receptor (Homo sapiens, UniProt P14416); test: Radioligand binding at human dopamine D2; details: [3H]spiperone; for Ki: read-out: pKi D2 (converted)
T3 construct: expressed in transfected cells; host or cells: COS-7 (plasmid pcEXV-D2, ATCC 75344)
T3 sequence (P14416 whole entry): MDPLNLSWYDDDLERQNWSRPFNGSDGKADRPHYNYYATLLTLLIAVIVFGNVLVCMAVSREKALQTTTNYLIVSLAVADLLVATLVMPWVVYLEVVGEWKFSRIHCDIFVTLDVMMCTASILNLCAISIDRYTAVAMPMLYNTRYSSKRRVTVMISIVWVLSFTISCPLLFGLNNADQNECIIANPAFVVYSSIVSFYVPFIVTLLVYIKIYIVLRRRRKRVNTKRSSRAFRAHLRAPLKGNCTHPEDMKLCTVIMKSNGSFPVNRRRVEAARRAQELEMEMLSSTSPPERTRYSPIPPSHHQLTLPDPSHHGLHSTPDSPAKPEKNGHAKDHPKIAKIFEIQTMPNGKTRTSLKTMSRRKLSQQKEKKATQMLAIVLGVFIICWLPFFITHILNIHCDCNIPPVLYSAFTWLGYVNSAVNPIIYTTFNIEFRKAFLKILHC
Method: Human Dopamine D2 Receptors
The affinity of compounds at the D2 receptor were determined using membrane preparations from COS-7 cells transfected with the gene encoding the human D2 receptor. The coding region for the human D2 receptor was obtained from a human striatum cDNA library, and cloned into the cloning site of PCDNA 1 eukariotic expression vector. The plasmid DNA for the D2 receptor is designated pcEXV-D2, and was deposited on Nov. 6, 1992 under ATCC Accession No. 75344. This construct was transfected into COS-7 cells by the DEAE-dextran method. Cells were harvested after 72 hours and lysed by sonication in 5mM Tris-HCl, 5 mM EDTA, pH 7.5. The cell lysates were centrifuged at 1000 rpm for 5 minutes at 4° C., and the supernatant was centrifuged at 30,000×g for 20 minutes at 4° C. The pellet was suspended in 50 mM Tris-HCl (pH 7.4) containing 1 mM EDTA, 5 mM KCl, 1.5 mM CaCl2, 4 mM MgCl2, and 0.1% ascorbic acid. The cell lysates were incubated with [3H]spiperone (2 nM), using 10 μM (+)Butaclamol to determine nonspecific binding.

[2] = target: T4, dog BN, female (α1-adrenoceptor) (Canis lupus, UniProt A0A8I3NK63); test: Contractile study in isolated female dog bladder neck; details: for pEC50 Bladder Neck: agonist contraction; for pEC50 Bladder Neck / sensitivity of the contraction to prazosin, bladder neck: female dog bladder neck
T4 sequence (A0A8I3NK63 1-466): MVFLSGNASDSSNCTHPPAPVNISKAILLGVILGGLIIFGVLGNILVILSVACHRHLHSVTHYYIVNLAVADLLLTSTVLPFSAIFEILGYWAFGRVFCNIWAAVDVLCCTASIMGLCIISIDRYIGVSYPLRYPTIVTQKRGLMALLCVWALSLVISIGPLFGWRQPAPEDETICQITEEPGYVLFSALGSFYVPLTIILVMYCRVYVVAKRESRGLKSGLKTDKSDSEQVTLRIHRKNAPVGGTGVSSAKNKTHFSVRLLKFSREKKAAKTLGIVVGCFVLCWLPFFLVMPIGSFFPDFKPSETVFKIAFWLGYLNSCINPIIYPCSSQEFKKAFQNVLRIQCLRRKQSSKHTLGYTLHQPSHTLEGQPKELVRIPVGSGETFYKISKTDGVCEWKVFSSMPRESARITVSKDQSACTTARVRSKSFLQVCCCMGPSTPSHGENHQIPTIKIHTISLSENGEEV
Text: In addition, similar studies were done using bladder neck tissue from female dogs. In order to identify the specific receptor subtype in each tissue, the pharmacological profile was compared to the profiles for these same drugs at the cloned human α1A, α1B, or α1C subtypes.
Tissue samples from the proximal urethra of male humans and male and female rabbits, as well as tissue samples from both the proximal urethra and bladder neck of male and female dogs were cut into transverse strips (3×10 mm) and suspended under 0.5 g tension in Krebs' physiological buffer at 37° C. To determine agonist potency (pEC50 )and antagonist affinity constants (pKB), concentration-effect curves to the non-selective agonist phenylepherine were constructed in the absence and in the presence of increasing concentrations of the antagonist. Up to four sequential curves were constructed in each tissue. Antagonists were allowed to equilibrate for 1h before each concentration-effect curve, and the drugs were completely washed out in between successive curves. In each experiment, one tissue served as a "time control", in which no antagonist was added so that changes in tissue sensitivity could be assessed as a function of time. […] In instances in which a single concentration of antagonist was used, pKB values were determined by the equation: […], where CR is defined as the ratio of the agonist EC50 in the presence of the antagonist to that in the absence of the antagonist.

[3] = Table 3, agonists, read-out: pKi α2A (converted)

`COc1ccc(SC)c2c1C[C@@H]1[C@@H](C2)OCCN1C` (relative stereo) [SDZ NVI-085, (±)-trans-4-Methyl-6-methoxy-9-thiomethoxy-3,4,4a, 5,10,10a-hexahydro-2H-naphtho[2,3-b][1,4]oxazine] was tested, and the Ki (human α2A adrenoceptor) was 50.1 nM, the Ki (human α2B adrenoceptor) was 63.1 nM and the Ki [1] was 3160 nM.
`COc1ccc(OC)c(C(O)CN)c1` (racemic) [ST-1059, (±)-2-Amino-1-(2, 5 dimethoxyphenyl) ethanol] was tested, and the Ki (human α2A adrenoceptor; [3]) was 2000 nM and the Ki (human α2B adrenoceptor) was 1580 nM.
With `CNCCc1ccc(O)c(NS(C)(=O)=O)c1` [SK&F 102652] the “pKi α2A” value (human α2A adrenoceptor; Table 3, agonists) was 6.4, the “pKi D2” value [1] was 6.7 and the “pEC50 Bladder Neck” value [2] was 5.7. For the same molecule, the “sensitivity of the contraction to prazosin, bladder neck” value [2] was “highly sensitive to prazosin”.
In the case of `COc1ccccc1N1CCN(CCCNc2c(C)c(=O)n(C)c(=O)n2C)CC1` [Compound 5-MU], the “pKB Dog BN Female” value ([2]; versus phenylephrine-induced contraction) is reported as 8.8.
With `CN[C@@H](C)[C@H](O)c1ccccc1` [(-)-ephedrine] the Ki (human α2A adrenoceptor; [3]) was 794 nM and the Ki (human α2B adrenoceptor) was 2510 nM.
For `CS(=O)(=O)Nc1c(O)ccc2c1CCCC2C1=NCCN1` (racemic) [Compound A-61603, (±)-N-[5-(4,5-Dihydro-1H-imidazol-2-yl)-2-hydroxy-5,6,7,8-tetra-hydronaphthalen-1-yl]methanesulfonamide], the Ki (human α2B adrenoceptor; Table 3, agonists, read-out: pKi α2B (converted)) was 316 nM, the Ki [1] was 10000 nM and the “pEC50 Bladder Neck” value [2] was 6.8. For the same molecule, the “sensitivity of the contraction to prazosin, bladder neck” value [2] was “highly sensitive to prazosin”.
With `C[C@H](N)[C@H](O)c1ccccc1` [(-)-norephedrine] the Ki (human α2A adrenoceptor; [3]) was 501 nM and the Ki (human α2B adrenoceptor) was 251 nM.
